Laboratory results from patent US7767714B2, “Method of preventing infectious diseases” (Ajinomoto Co., Inc., priority 2002, dated 2010).

How the values were obtained:
[1] = test system: influenza virus A/Aichi/2/68 (H3N2); test: Body weight change of mice after influenza virus infection (Example 1); type: in vivo, BALB/c female mice; details: mouse; feed with 0.5 wt % L-cystine and/or 0.2 wt % L-theanine for 2 weeks; 10^5 PFU nasally; versus control group on basic feed; FIG. 1
Source text: 4-week-old BALB/c female mice in the growth period were preliminarily raised on a solid feed (CRF-1 solid feed, Charles River Japan, inc.) for one week, then preliminarily raised on a powder feed (CRF-1 powder feed, Charles River Japan, inc.) for one week, and when they reached 6 weeks of age, the feed was changed to a feed containing 20 wt % of casein as a protein source (basic feed: composition: α-corn starch 68.3 wt %, casein 20 wt %, mineral mixture 3.5 wt %, vitamin mixture 1 wt %, cellulose powder 2 wt %, corn-oil 5 wt %, choline bitartrate 0.2 wt %), the same feed supplemented with 0.5 wt % of L-cystine as an amino acid, the same feed supplemented with 0.2 wt % of L-theanine as an amino acid, and the same feed supplemented with 0.5 wt % of L-cystine and 0.2 wt % of L-theanine as amino acids (the present invention), and further raised for 2 weeks. Those continuously raised on the basic feed were used as a control group. Ten mice were used for the test for each group.
At two weeks of the amino acid addition feed administration, 10^5 PFU influenza virus A/Aichi/2/68 (H3N2) was nasally inoculated, the body weight of the mice was measured immediately before virus inoculation and day 5 of infection.
Thus, it was clarified that a concurrent use of L-theanine enhanced the action of L-cystine.

[2] = test system: Escherichia coli; details: Chem. Pharm. Bull. 28, 3549-3554, 1980; cited from earlier work
[3] = test system: Staphylococcus aureus; details: J. Biol. Chem. 171, 387, 1947; Chem. Pharm. Bull. 28, 3549-3554, 1980; cited from earlier work
[4] = test system: trichomonas; details: extremely high concentration of theanine, in vitro cultivation system; Nature 166, 352, 1950; cited from earlier work

Structure (SMILES) | body weight change at day 5 of influenza virus infection [1] | growth of Escherichia coli [2] | growth of Staphylococcus aureus [3] | trichomonas growth [4]
CCNC(=O)CC[C@H](N)C(=O)O [L-theanine] | body weight decrease of the same level as that of the control group | – | – | –
CCNC(=O)CC[C@H](N)C(=O)O [theanine] | – | suppression of growth of Staphylococcus aureus and Escherichia coli | suppression of growth of Staphylococcus aureus | suppression of trichomonas growth
N[C@@H](CSSC[C@H](N)C(=O)O)C(=O)O [L-cystine] | suppressed somewhat | – | – | –
